Data taken from US20150011528A1, “PHENYLIMIDE-CONTAINING BENZOTHIAZOLE DERIVATIVE OF ITS SALT AND PHARMACEUTICAL COMPOSITION COMPRISING THE SAME” (YUHAN CORPORATION, priority 2011, published 2015).
Blank lines part the entries; values can stand above or below the compound they belong to.

What was measured:
Assay type in all cases: cell-based
[1] = biological target: T1, binding between KRS and AIMP3 (Homo sapiens, UniProt Q15046); test: Yeast Two Hybrid specificity test, LexA-KRS / B42-AIMP3 co-transformed yeast cells; conditions: 1 μL of 20 mM DMSO solution per 200 μL culture; 30° C., 6 days; absorbance 540 nm; non-treated control = 100%
T1 construct: expressed in transfected cells; host or cells: yeast cells (co-transformed)
T1 sequence (Q15046 whole entry): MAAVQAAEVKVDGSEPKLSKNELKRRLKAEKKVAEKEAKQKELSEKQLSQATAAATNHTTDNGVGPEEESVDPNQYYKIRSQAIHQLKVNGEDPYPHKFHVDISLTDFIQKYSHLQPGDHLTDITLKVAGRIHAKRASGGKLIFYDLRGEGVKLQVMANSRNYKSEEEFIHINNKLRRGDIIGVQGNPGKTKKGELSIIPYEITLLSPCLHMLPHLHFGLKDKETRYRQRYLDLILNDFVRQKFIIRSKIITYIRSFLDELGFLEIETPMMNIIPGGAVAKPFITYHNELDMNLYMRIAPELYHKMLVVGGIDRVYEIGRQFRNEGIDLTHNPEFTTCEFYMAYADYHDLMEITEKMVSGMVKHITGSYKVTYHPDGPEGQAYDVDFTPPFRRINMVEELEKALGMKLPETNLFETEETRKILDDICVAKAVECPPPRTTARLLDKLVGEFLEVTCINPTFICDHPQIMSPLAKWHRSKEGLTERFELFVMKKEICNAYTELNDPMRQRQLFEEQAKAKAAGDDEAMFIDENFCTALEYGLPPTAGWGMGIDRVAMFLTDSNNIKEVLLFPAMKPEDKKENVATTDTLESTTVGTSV
Procedure: (§1) And also, specificity of the inhibitory activity was evaluated, using the yeast cells cotransformed with the LexA-KRS vector and the B42-AIMP2 vector; and the yeast cells co-transformed with the LexA-KRS vector and the B42-AIMP3 vector, which were respectively prepared according to WO2011/056021. The co-transformation was carried out using the Yeastmaker yeast transformation system2 kit (Clontech), according to the manufacturer's instruction. […] The cultured yeast cells were diluted with the said galactose medium, until the absorbance at 540 nm attains to about 0.15 to 0.2. The diluted culture (200 μL), containing the yeast cells, was added to each well of a 96-well plate. Each test compound was dissolved in dimethyl sulfoxide at a concentration of 20 mM and then the resulting solutions (1 μL) were added to each well. The plate was cultured at 30° C. for 6 days and then the absorbance of each well was measured at 540 nm. The respective yeast cell proliferation rates (%) in the treated samples were calculated in comparison with those of the non-treated control (100%) and the results thereof are shown in Table 1 below.

[2] = system: A549 cells; test: Cell Migration Assay (transwell, laminin); conditions: Homo sapiens, laminin 10 μg/mL in lower well, test compounds 0.39˜100 μM, 6 hours at 37° C.
Procedure: Cell migration was measured with a 24-well transwell having a polycarbonate membrane (8.0 μm pore size, Costar) at the bottom of the upper chamber. Each lower well was treated with laminin (10 μg/mL) and test compounds (0.39˜100 μM) along with a serum-free RPMI1640 medium. A549 cells (Korean Cell Line Bank) were suspended in a serum-free RPMI1640 medium at a concentration of 1×10^6 cells/mL and then the test compounds were added thereto at the indicated concentrations. Each resulting solution (100 μL) was added to the upper chamber. The cells were cultured at 37° C. for 6 hours in a CO2 incubator. The upper chamber was taken out and then the cells were fixed with PBS containing 70% methyl alcohol for 10 minutes, followed by washing with PBS twice. The cells were stained with hematoxylin (Sigma) for 10 minutes and then washed with distilled water. The non-migrated cells were removed from the upper portion of the polycarbonate membrane with a cotton swab. The membranes were excised and separated from the chamber, and then mounted to a slide using a gel mount reagent (Biomeda, USA). The migrated cells (attached to the lower face of the membrane) were counted at three randomly selected sites under a microscope (×20). The cell counting was performed with the Image J program. From the counted cell numbers, each IC50 value was calculated by non-linear regression curve fit using the “GraphPad Prism” program.
The cells are pulled by laminin residing in the lower chamber and then passed through the polycarbonate membrane, so as to attach to the lower face of the membrane.

[3] = biological target: T2, interaction between the KRS protein and the laminin receptor (LR) (Homo sapiens, UniProt Q15046); test: Yeast Two Hybrid inhibition of the interaction between the KRS protein and the laminin receptor (LR); conditions: 1 μL of 20 mM DMSO solution per 200 μL culture; 30° C., 6 days; absorbance 540 nm; non-treated control = 100%
T2 construct: expressed in transfected cells; host or cells: yeast EGY/SH cells
T2 sequence (Q15046 whole entry): as above
Procedure: The inhibitory activity against the interaction between the KRS protein and the laminin receptor (LR) was evaluated according to the Yeast Two Hybrid method described in WO2011/056021. According to the disclosures of WO2011/056021, we prepared a vector obtained by cloning the KRS gene in the LexA vector (Clontech) and a vector obtained by cloning the LR gene in the B42 vector (Clontech). The yeast cells, i.e., EGY/SH cells were co-transformed with the LexA-KRS vector and the B42-LR vector. The co-transformation was carried out using the Yeastmaker yeast transformation system2 kit (Clontech), according to the manufacturer's instruction. […] The cultured yeast cells were diluted with the said galactose medium, until the absorbance at 540 nm attains to about 0.15 to 0.2. The diluted culture (200 μL), containing the yeast cells, was added to each well of a 96-well plate. Each test compound was dissolved in dimethyl sulfoxide at a concentration of 20 mM and then the resulting solutions (1 μL) were added to each well. The plate was cultured at 30° C. for 6 days and then the absorbance of the each well was measured at 540 nm.
as §1
When KRS is bound to LR, the trans-activation domain is come close to the DNA-binding domain and the genes for synthesizing essential amino acids are expressed, which leads to normal growth of the transformed yeasts, thereby increasing the absorbance.

[4] = biological target: T3, binding between KRS and AIMP2 (Homo sapiens, UniProt Q15046); test: Yeast Two Hybrid specificity test, LexA-KRS / B42-AIMP2 co-transformed yeast cells; conditions: 1 μL of 20 mM DMSO solution per 200 μL culture; 30° C., 6 days; absorbance 540 nm; non-treated control = 100%
T3 construct: expressed in transfected cells; host or cells: yeast cells (co-transformed)
T3 sequence (Q15046 whole entry): as above
Procedure: as §1

- Yeast cell proliferation rates KRS-AIMP3 (%) [1]: 105.3%
- IC50 [2]: 22 µM
- Yeast cell proliferation rates KRS-LR (%) [3]: 41.4%
- Yeast cell proliferation rates KRS-AIMP2 (%) [4]: 106.0%
Structure (SMILES): CCOc1ccc2c(c1)sc(=NC(=O)c1cccc(Cl)c1)n2C(C)C(=O)O (centres unmarked) [Example 55, 2-{2-[(3-chlorobenzoyl)imino]-6-ethoxybenzo[d]thiazol-3(2H)-yl}propionic acid]

- Yeast cell proliferation rates KRS-AIMP3 (%) [1]: 80.8%
- IC50 [2]: 29.6 µM
- Yeast cell proliferation rates KRS-LR (%) [3]: 31.7%
- Yeast cell proliferation rates KRS-AIMP2 (%) [4]: 97.7%
Structure (SMILES): CCC(C(=O)O)n1c(=NC(=O)c2cccc(Cl)c2)sc2cc(C)ccc21 (centres unmarked) [Example 59, 2-{2-[(3-chlorobenzoyl)imino]-6-methylbenzo[d]thiazol-3(2H)-yl}butanoic acid]

- Yeast cell proliferation rates KRS-AIMP3 (%) [1]: 102.1%
- IC50 [2]: 18.9 µM
- Yeast cell proliferation rates KRS-LR (%) [3]: 31.5%
- Yeast cell proliferation rates KRS-AIMP2 (%) [4]: 79.4%
Structure (SMILES): CCC(C(=O)O)n1c(=NC(=O)c2cccc(Cl)c2)sc2ccccc21 (centres unmarked) [Example 139, 2-[2-(3-chlorobenzoylimino)benzo[d]thiazol-3(2H)-yl]butanoic acid]

- Yeast cell proliferation rates KRS-AIMP3 (%) [1]: 104.1%
- IC50 [2]: 37.9 µM
- Yeast cell proliferation rates KRS-LR (%) [3]: 36.3%
- Yeast cell proliferation rates KRS-AIMP2 (%) [4]: 90.0%
Structure (SMILES): CC(C(=O)O)n1c(=NC(=O)c2cccc(Cl)c2)sc2cc(C(F)(F)F)ccc21 (centres unmarked) [Example 172, 2-(2-((3-chlorobenzoyl)imino)-6-(trifluoromethyl)benzo[d]thiazol-3(2H)-yl)propionic acid]

- Yeast cell proliferation rates KRS-AIMP3 (%) [1]: 105.4%
- IC50 [2]: 6.5 µM
- Yeast cell proliferation rates KRS-LR (%) [3]: 15.9%
- Yeast cell proliferation rates KRS-AIMP2 (%) [4]: 100.2%
Structure (SMILES): CCC(C(=O)O)n1c(=NC(=O)c2cccc(Cl)c2)sc2c(Cl)cccc21 (centres unmarked) [Example 310, 2-(7-chloro-2-((3-chlorobenzoyl)imino)benzo[d]thiazol-3(2H)-yl)butanoic acid]

- Yeast cell proliferation rates KRS-AIMP3 (%) [1]: 107.2%
- IC50 [2]: 81.3 µM
- Yeast cell proliferation rates KRS-LR (%) [3]: 12.6%
- Yeast cell proliferation rates KRS-AIMP2 (%) [4]: 104.0%
Structure (SMILES): CCC(C(=O)O)n1c(=NC(=O)c2cccc(Cl)c2)sc2c(F)c(F)ccc21 (centres unmarked) [Example 338, 2-(2-((3-chlorobenzoyl)imino)-6,7-difluorobenzo[d]thiazol-3(2H)-yl)butanoic acid]

- Yeast cell proliferation rates KRS-AIMP3 (%) [1]: 90.3%
- Yeast cell proliferation rates KRS-LR (%) [3]: 36.1%
- Yeast cell proliferation rates KRS-AIMP2 (%) [4]: 97.1%
Structure (SMILES): CCC(C(=O)O)n1c(=NC(=O)c2cccc(F)c2)sc2c(Cl)cccc21 (centres unmarked) [Example 543, 2-(7-chloro-2-((3-fluorobenzoyl)imino)benzo[d]thiazol-3(2H)-yl)butanoic acid]

The remaining lines, values behind:

Structure (SMILES): CCC(C(=O)O)n1c(=NC(=O)c2ccc(C(F)(F)F)cc2)sc2ccccc21 (centres unmarked) [Example 64, 2-{2-[4-(trifluoromethyl)benzoylimino]benzo[d]thiazol-3(2H)-yl}butanoic acid]
- Yeast cell proliferation rates KRS-AIMP3 (%) [1]: 104.1%
- IC50 [2]: 20.1 µM
- Yeast cell proliferation rates KRS-LR (%) [3]: 28.8%
- Yeast cell proliferation rates KRS-AIMP2 (%) [4]: 99.2%

Structure (SMILES): CCC(C(=O)O)n1c(=NC(=O)c2ccc(C)cc2)sc2c(F)cccc21 (centres unmarked) [Example 93, 2-[7-fluoro-2-(4-methylbenzoylimino)benzo[d]thiazol-3(2H)-yl]butanoic acid]
- Yeast cell proliferation rates KRS-AIMP3 (%) [1]: 102.7%
- IC50 [2]: 17.6 µM
- Yeast cell proliferation rates KRS-LR (%) [3]: 33.2%
- Yeast cell proliferation rates KRS-AIMP2 (%) [4]: 88.5%

Structure (SMILES): Cc1ccc(C(=O)N=c2sc3c(Cl)cccc3n2C(C)C(=O)O)cc1 (centres unmarked) [Example 109, 2-[7-chloro-2-(4-methylbenzoylimino)benzo[d]thiazol-3(2H)-yl]propionic acid]
- Yeast cell proliferation rates KRS-AIMP3 (%) [1]: 98.2%
- IC50 [2]: 57 µM
- Yeast cell proliferation rates KRS-LR (%) [3]: 30.2%
- Yeast cell proliferation rates KRS-AIMP2 (%) [4]: 102.0%

Structure (SMILES): CC(C(=O)O)n1c(=NC(=O)c2cccc(C(F)(F)F)c2)sc2ccccc21 (centres unmarked) [Example 133, 2-{2-[3-(trifluoromethyl)benzoylimino]benzo[d]thiazol-3(2H)-yl}propionic acid]
- Yeast cell proliferation rates KRS-AIMP3 (%) [1]: 92.8%
- IC50 [2]: 11.4 µM
- Yeast cell proliferation rates KRS-LR (%) [3]: 33.2%
- Yeast cell proliferation rates KRS-AIMP2 (%) [4]: 82.1%

Structure (SMILES): CCC(C(=O)O)n1c(=NC(=O)c2cccc(C(F)(F)F)c2)sc2ccccc21 (centres unmarked) [Example 142, 2-[2-(3-(trifluoromethyl)benzoylimino)benzo[d]thiazol-3(2H)-yl]butanoic acid]
- Yeast cell proliferation rates KRS-AIMP3 (%) [1]: 106.5%
- IC50 [2]: 14.7 µM
- Yeast cell proliferation rates KRS-LR (%) [3]: 39.4%
- Yeast cell proliferation rates KRS-AIMP2 (%) [4]: 95.0%

Structure (SMILES): CCC(C(=O)O)n1c(=NC(=O)c2ccc(C)cc2)sc2cc(C(F)(F)F)ccc21 (centres unmarked) [Example 155, 2-[2-(4-methylbenzoylimino)-6-(trifluoromethyl)benzo[d]thiazol-3(2H)-yl]butanoic acid]
- Yeast cell proliferation rates KRS-AIMP3 (%) [1]: 100.0%
- IC50 [2]: 16.7 µM
- Yeast cell proliferation rates KRS-LR (%) [3]: 29.7%
- Yeast cell proliferation rates KRS-AIMP2 (%) [4]: 102.4%

Structure (SMILES): O=C(O)Cn1c(=NC(=O)c2cccc(Cl)c2)sc2ccc(Cl)cc21 [Example 312, 2-(5-chloro-2-(3-chlorobenzoylimino)benzo[d]thiazol-3(2H)-yl)acetic acid]
- Yeast cell proliferation rates KRS-AIMP3 (%) [1]: 99.0%
- IC50 [2]: 36 µM
- Yeast cell proliferation rates KRS-LR (%) [3]: 14.6%
- Yeast cell proliferation rates KRS-AIMP2 (%) [4]: 89.6%

Structure (SMILES): CC(C(=O)O)n1c(=NC(=O)c2cccc(Cl)c2)sc2c(F)c(Cl)ccc21 (centres unmarked) [Example 385, 2-(6-chloro-2-((3-chlorobenzoyl)imino)-7-fluorobenzo[d]thiazol-3(2H)-yl)propionic acid]
- Yeast cell proliferation rates KRS-AIMP3 (%) [1]: 99.1%
- IC50 [2]: 25.4 µM
- Yeast cell proliferation rates KRS-LR (%) [3]: 11.6%
- Yeast cell proliferation rates KRS-AIMP2 (%) [4]: 108.2%

Structure (SMILES): CCOc1ccc2c(c1)sc(=NC(=O)c1ccc(F)cc1)n2C(CC)C(=O)O (centres unmarked) [Example 476, 2-(6-ethoxy-2-((4-fluorobenzoyl)imino)benzo[d]thiazol-3(2H)-yl)butanoic acid]
- Yeast cell proliferation rates KRS-AIMP3 (%) [1]: 86.1%
- Yeast cell proliferation rates KRS-LR (%) [3]: 29.6%
- Yeast cell proliferation rates KRS-AIMP2 (%) [4]: 91.0%

Structure (SMILES): CCC(C(=O)O)n1c(=NC(=O)c2ccc(OC)cc2)sc2cc(OC(F)(F)F)ccc21 (centres unmarked) [Example 507]
- Yeast cell proliferation rates KRS-AIMP3 (%) [1]: 99.0%
- Yeast cell proliferation rates KRS-LR (%) [3]: 45.9%
- Yeast cell proliferation rates KRS-AIMP2 (%) [4]: 99.3%

Structure (SMILES): CCC(C(=O)O)n1c(=NC(=O)c2cccc(OC)c2)sc2c(F)cccc21 (centres unmarked) [Example 532]
- Yeast cell proliferation rates KRS-AIMP3 (%) [1]: 97.3%
- Yeast cell proliferation rates KRS-LR (%) [3]: 43.7%
- Yeast cell proliferation rates KRS-AIMP2 (%) [4]: 98.6%

Structure (SMILES): CCC(C(=O)O)n1c(=NC(=O)c2ccc(OC)cc2)sc2c(F)cccc21 (centres unmarked) [Example 533]
- Yeast cell proliferation rates KRS-AIMP3 (%) [1]: 98.3%
- Yeast cell proliferation rates KRS-LR (%) [3]: 39.0%
- Yeast cell proliferation rates KRS-AIMP2 (%) [4]: 94.8%

Structure (SMILES): CCC(C(=O)O)n1c(=NC(=O)c2cccc(F)c2)sc2c(F)c(F)ccc21 (centres unmarked) [Example 582, 2-(6,7-difluoro-2-((3-fluorobenzoyl)imino)benzo[d]thiazol-3(2H)-yl)butanoic acid]
- Yeast cell proliferation rates KRS-AIMP3 (%) [1]: 93.0%
- Yeast cell proliferation rates KRS-LR (%) [3]: 49.3%
- Yeast cell proliferation rates KRS-AIMP2 (%) [4]: 99.0%

Structure (SMILES): CCC(C(=O)O)n1c(=NC(=O)c2ccc(OC)cc2)sc2c(F)c(F)ccc21 (centres unmarked) [Example 585]
- Yeast cell proliferation rates KRS-AIMP3 (%) [1]: 84.0%
- Yeast cell proliferation rates KRS-LR (%) [3]: 46.3%
- Yeast cell proliferation rates KRS-AIMP2 (%) [4]: 95.8%
